Laboratory results reported in patent EP4786487A1, “PEPTIDE” (Peptidream Inc, priority 2023, dated 2025).
Read-outs that look alike come from different tables or passages of the source. Starred links: 1 amine or outer side, 2 acyl side, 3 side chain; linkers in the order of their positions; H or OH if unused. Positions of bridges follow the written chain, without caps; N, C: chain ends. Non-standard residues stand in square brackets, D forms with d. Residues, ends and D or L forms follow the SMILES beside them. Groups on a side chain read outwards from the residue. *: point of attachment. Phe(3-OCH2COOH) = N[C@@H](Cc1cccc(OCC(=O)O)c1)C(=O)O; Trp(6-OH) = N[C@@H](Cc1c[nH]c2cc(O)ccc12)C(=O)O; Phe(3-CONH2) = NC(=O)c1cccc(C[C@H](N)C(=O)O)c1; Phe(4-COOH) = N[C@@H](Cc1ccc(C(=O)O)cc1)C(=O)O; Trp(7-aza) = N[C@@H](Cc1c[nH]c2ncccc12)C(=O)O; Piperazinyl(4-CH2COOH) = O=C(O)CN1CCN(*)CC1; Bip = N[C@@H](Cc1ccc(-c2ccccc2)cc1)C(=O)O; Gly(decyl) = CCCCCCCCCC[C@H](N)C(=O)O; Gly(N(CH2)3COOH) = O=C(O)CCCNCC(=O)O; Gly(octyl) = CCCCCCCC[C@H](N)C(=O)O; X1 = CCCCCCC[C@H](N[*:1])C(=O)[*:2]; NMeCha = CN[C@@H](CC1CCCCC1)C(=O)O; Gly(N-(CH2)3OMe) = COCCCNCC(=O)O; NMeF = CN[C@@H](Cc1ccccc1)C(=O)O; 4Pal = N[C@@H](Cc1ccncc1)C(=O)O; Cha = N[C@@H](CC1CCCCC1)C(=O)O; NMeA = CN[C@@H](C)C(=O)O; CO = O=C([*:1])[*:2]; Sar = CNCC(=O)O

Assays:
Type in all cases: cell-based
[1] = biological target: T1, Myostatin (Homo sapiens, UniProt O14793); assay: Reporter gene assay for myostatin signaling in HepG2 cell line, Evaluation Procedure (1), myostatin inhibition; conditions: read-out: IC50 (Luciferase) Myostatin HepG2
T1 construct: active myostatin (also called mature myostatin) is a homodimer consisting of two C-terminal growth factor domains; purchased R&D systems 788-G8/CF
T1 sequence (O14793 267-375): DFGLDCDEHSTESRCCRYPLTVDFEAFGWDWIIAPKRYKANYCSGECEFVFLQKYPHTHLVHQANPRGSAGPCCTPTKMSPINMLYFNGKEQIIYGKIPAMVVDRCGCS
In short: (§1)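 HepG2 cells transfected with pGL3(CAGA)12-luciferase reporter, serum-starved in 0.1% BSA medium, then stimulated with myostatin or GDF-11 plus 4-fold peptide dilutions (0.006–100 nmol/L for myostatin, 0.12–2000 nmol/L for GDF-11) for 20–24 h at 37 °C. Luminescence read with One-Glo; IC50 calculated.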

[2] = test system: Myostatin; assay: as above; conditions: GDF-11 IC50 versus Myostatin IC50
In short: as §1

[3] = biological target: T2, GDF-11 (Homo sapiens, UniProt O95390); assay: Reporter gene assay for myostatin signaling in HepG2 cell line, Evaluation Procedure (1), GDF-11 inhibition; conditions: read-out: IC50 (Luciferase) GDF-11 HepG2
T2 construct: purchased R&D systems 1958-GD-G8/CF
T2 sequence (O95390 299-407): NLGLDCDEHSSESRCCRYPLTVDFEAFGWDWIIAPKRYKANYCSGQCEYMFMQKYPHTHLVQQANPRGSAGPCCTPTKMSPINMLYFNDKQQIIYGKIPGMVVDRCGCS
In short: as §1

Row | Compound | IC50 ([1]; Method A: Myostatin 10 ng/mL) [µM] | Selectivity ([2]; Method A) | IC50 ([3]; Method A: GDF-11 10 ng/mL) [µM] | IC50 ([1]; Method D: Myostatin 1.5 ng/mL) [µM] | Selectivity ([2]; Method D) | IC50 ([3]; Method D: GDF-11 1.5 ng/mL) [µM]
1 | CCCCCCCCCC[C@@H]1NC(=O)[C@H](Cc2ccccc2)N(C)C(=O)[C@H](CCCNC(=N)N)NC(=O)[C@H](Cc2ccc(C(=O)O)cc2)NC(=O)[C@H](Cc2cccc(OCC(=O)O)c2)NC(=O)[C@H](C)N(C)C(=O)[C@H]([C@@H](C)CC)NC(=O)[C@H](Cc2ccccc2)N(C)C(=O)[C@H](Cc2ccc(O)cc2)NC(=O)[C@H](Cc2c[nH]c3ccccc23)NC(=O)[C@H](C)NC(=O)CN(CCCC(=O)O)C(=O)CSC[C@H](C(=O)O)NC(=O)[C@H](Cc2ccccc2)N(C)C(=O)[C@H](C)N(C)C1=O [Myostatin_99_v198] ({CH2CO}-[Gly(N(CH2)3COOH)]AWY[NMeF]I[NMeA][Phe(3-OCH2COOH)][Phe(4-COOH)]R[NMeF][Gly(decyl)][NMeA][NMeF][dC]-OH; thioether N-15) | 0.0007 | 123 | 0.09 | – | – | –
2 | CC[C@H](C)[C@@H]1NC(=O)[C@H](Cc2ccccc2)N(C)C(=O)[C@H](Cc2ccc(O)cc2)NC(=O)[C@H](Cc2ccc(-c3ccccc3)cc2)NC(=O)[C@H](C)NC(=O)CN(CCCC(=O)O)C(=O)CSC[C@H](C(=O)O)NC(=O)[C@H](Cc2ccccc2)N(C)C(=O)[C@H](C)N(C)C(=O)[C@H](CC(C)C)NC(=O)[C@H](Cc2ccccc2)N(C)C(=O)[C@H](CCCNC(=N)N)NC(=O)[C@H](Cc2ccc(C(=O)O)cc2)NC(=O)[C@H](Cc2ccc(O)cc2)NC(=O)[C@H](C)N(C)C1=O [Myostatin_99_v182] ({CH2CO}-[Gly(N(CH2)3COOH)]A[Bip]Y[NMeF]I[NMeA]Y[Phe(4-COOH)]R[NMeF]L[NMeA][NMeF][dC]-OH; thioether N-15) | 0.053 | 26 | 1.36 | – | – | –
3 | CCCCCCC[C@@H]1NC(=O)[C@H](Cc2ccccc2)N(C)C(=O)[C@H](CCCNC(=N)N)NC(=O)[C@H](Cc2ccc(C(=O)O)cc2)NC(=O)[C@H](Cc2ccc(O)cc2)NC(=O)CN(C)C(=O)[C@H]([C@@H](C)CC)NC(=O)[C@H](Cc2ccccc2)N(C)C(=O)[C@H](Cc2ccc(O)cc2)NC(=O)[C@H](Cc2c[nH]c3ccccc23)NC(=O)[C@H](CO)NC(=O)CN(CCCC(=O)O)C(=O)CSC[C@H](C(=O)O)NC(=O)[C@H](Cc2ccccc2)N(C)C(=O)[C@H](C)N(C)C1=O [Myostatin_99_v173] ({CH2CO}-[Gly(N(CH2)3COOH)]SWY[NMeF]I[Sar]Y[Phe(4-COOH)]R[NMeF][X1][NMeA][NMeF][dC]-OH; thioether N-15) | 0.0055 | 42 | 0.232 | – | – | –
4 | CC[C@H](C)[C@@H]1NC(=O)[C@H](Cc2ccccc2)N(C)C(=O)[C@H](Cc2ccc(O)cc2)NC(=O)[C@H](Cc2c[nH]c3ncccc23)NC(=O)[C@H](C)NC(=O)CN(CCCC(=O)O)C(=O)CSC[C@H](C(=O)O)NC(=O)[C@H](Cc2ccccc2)N(C)C(=O)[C@H](C)N(C)C(=O)[C@H](CC(C)C)NC(=O)[C@H](Cc2ccccc2)N(C)C(=O)[C@H](CCCNC(=N)N)NC(=O)[C@H](Cc2ccc(C(=O)O)cc2)NC(=O)[C@H](Cc2ccncc2)NC(=O)CN(C)C1=O [Myostatin_99_Variant_21-OH] ({CH2CO}-[Gly(N(CH2)3COOH)]A[Trp(7-aza)]Y[NMeF]I[Sar][4Pal][Phe(4-COOH)]R[NMeF]L[NMeA][NMeF][dC]-OH; thioether N-15) | 0.106 | 41 | 4.32 | – | – | –
5 | CCCCCCC[C@@H]1NC(=O)[C@H](Cc2ccccc2)N(C)C(=O)[C@H](CCCNC(=N)N)NC(=O)[C@H](Cc2ccc(C(=O)O)cc2)NC(=O)[C@H](Cc2cccc(OCC(=O)O)c2)NC(=O)CN(C)C(=O)[C@H]([C@@H](C)CC)NC(=O)[C@H](Cc2ccccc2)NC(=O)[C@H](Cc2ccc(O)cc2)NC(=O)[C@H](Cc2c[nH]c3ccccc23)NC(=O)[C@H](C)NC(=O)[C@H](C)NC(=O)CSC[C@H](C(=O)O)NC(=O)[C@H](Cc2ccccc2)N(C)C(=O)[C@H](C)N(C)C1=O [Myostatin_99_v209] ({CH2CO}-AAWYFI[Sar][Phe(3-OCH2COOH)][Phe(4-COOH)]R[NMeF][X1][NMeA][NMeF][dC]-OH; thioether N-15) | 0.0054 | 147 | 0.794 | – | – | –
6 | CCCCCCCC[C@@H]1NC(=O)[C@H](Cc2ccccc2)N(C)C(=O)[C@H](CCCNC(=N)N)NC(=O)[C@H](Cc2ccc(C(=O)O)cc2)NC(=O)[C@H](Cc2cccc(OCC(=O)O)c2)NC(=O)CN(C)C(=O)[C@H]([C@@H](C)CC)NC(=O)[C@H](Cc2ccccc2)N(C)C(=O)[C@H](Cc2ccc(O)cc2)NC(=O)[C@H](Cc2c[nH]c3ccccc23)NC(=O)[C@H](C)NC(=O)CN(CCCC(=O)O)C(=O)CSC[C@H](C(=O)O)NC(=O)[C@H](Cc2ccccc2)N(C)C(=O)[C@H](C)N(C)C1=O [Myostatin_99_v200] ({CH2CO}-[Gly(N(CH2)3COOH)]AWY[NMeF]I[Sar][Phe(3-OCH2COOH)][Phe(4-COOH)]R[NMeF][Gly(octyl)][NMeA][NMeF][dC]-OH; thioether N-15) | 0.001 | 233 | 0.233 | – | – | –
7 | CCCCCCCC[C@@H]1NC(=O)[C@H](Cc2ccccc2)N(C)C(=O)[C@H](CCCNC(=N)N)NC(=O)[C@H](Cc2ccc(OC)cc2)NC(=O)[C@H](Cc2cccc(OCC(=O)O)c2)NC(=O)CN(C)C(=O)[C@H]([C@@H](C)CC)NC(=O)[C@H](Cc2ccccc2)N(C)C(=O)[C@H](Cc2ccc(O)cc2)NC(=O)[C@H](Cc2c[nH]c3cc(O)ccc23)NC(=O)[C@H](C)NC(=O)CN(CCCOC)C(=O)CSC[C@H](C(N)=O)NC(=O)[C@H](Cc2ccccc2)N(C)C(=O)[C@H](C)N(C)C1=O [Myostatin_99_v418] ({CH2CO}-[Gly(N-(CH2)3OMe)]A[Trp(6-OH)]Y[NMeF]I[Sar][Phe(3-OCH2COOH)]Y(Me)R[NMeF][Gly(octyl)][NMeA][NMeF][dC]-NH2; thioether N-15) | – | – | – | 0.00022 | 136.2 | 0.0296
8 | CCCCCCC[C@@H]1NC(=O)[C@H](Cc2ccccc2)N(C)C(=O)[C@H](CCCNC(=N)N)NC(=O)[C@H](Cc2ccc(C(=O)O)cc2)NC(=O)[C@H](Cc2ccncc2)NC(=O)CN(C)C(=O)[C@H]([C@@H](C)CC)NC(=O)[C@H](Cc2ccccc2)N(C)C(=O)[C@H](Cc2ccc(O)cc2)NC(=O)[C@H](Cc2c[nH]c3ccccc23)NC(=O)[C@H](C)NC(=O)CN(CCCC(=O)O)C(=O)CSC[C@H](C(=O)O)NC(=O)[C@H](Cc2ccccc2)N(C)C(=O)[C@H](C)N(C)C1=O [Myostatin_99_v169] ({CH2CO}-[Gly(N(CH2)3COOH)]AWY[NMeF]I[Sar][4Pal][Phe(4-COOH)]R[NMeF][X1][NMeA][NMeF][dC]-OH; thioether N-15) | 0.0012 | 310 | 0.372 | – | – | –
9 | CCCCCCC[C@@H]1NC(=O)[C@H](CC2CCCCC2)NC(=O)[C@H](CCCNC(=N)N)NC(=O)[C@H](Cc2ccc(C(=O)O)cc2)NC(=O)[C@H](CCCCNC(=O)N2CCN(CC(=O)O)CC2)NC(=O)[C@H]2CCCN2C(=O)[C@H]([C@@H](C)CC)NC(=O)[C@H](CC2CCCCC2)N(C)C(=O)[C@H](Cc2ccc(O)cc2)NC(=O)[C@H](Cc2c[nH]c3ccccc23)NC(=O)[C@@H](CCC(=O)O)NC(=O)[C@H](C)NC(=O)CSC[C@H](C(=O)N2CCN(CC(=O)O)CC2)NC(=O)[C@H](Cc2ccccc2)N(C)C(=O)[C@H](C)N(C)C1=O [Myostatin_99_v244] ({CH2CO}-A[dE]WY[NMeCha]I[dP]K([CO-Piperazinyl(4-CH2COOH)])[Phe(4-COOH)]R[Cha][X1][NMeA][NMeF][dC]-{Piperazinyl(4-CH2COOH)}; thioether N-15) | 0.0177 | 771 | 13.6 | – | – | –
10 | CC[C@H](C)[C@@H]1NC(=O)[C@H](Cc2ccccc2)N(C)C(=O)[C@H](Cc2ccc(O)cc2)NC(=O)[C@H](Cc2c[nH]c3ncccc23)NC(=O)[C@H](C)NC(=O)CN(CCCC(=O)O)C(=O)CSC[C@H](C(=O)O)NC(=O)[C@H](Cc2ccccc2)N(C)C(=O)[C@H](C)N(C)C(=O)[C@H](CC(C)C)NC(=O)[C@H](Cc2ccccc2)N(C)C(=O)[C@H](CCCNC(=N)N)NC(=O)[C@H](Cc2cccc(C(N)=O)c2)NC(=O)[C@H](Cc2ccccc2)NC(=O)CN(C)C1=O [Myostatin_99_v45] ({CH2CO}-[Gly(N(CH2)3COOH)]A[Trp(7-aza)]Y[NMeF]I[Sar]F[Phe(3-CONH2)]R[NMeF]L[NMeA][NMeF][dC]-OH; thioether N-15) | 0.0128 | 26 | 0.332 | – | – | –
